In patent publication US10590123B2, “Pesticidally active amide heterocyclic derivatives with sulphur containing substituents” (SYNGENTA PARTICIPATIONS AG, priority 2014, dated 2020):

Key:
Type in all cases: in vivo
[1] = system: Spodoptera littoralis (Egyptian Cotton Leaf Worm); experiment: Example B2: Activity against Spodoptera littoralis, systemic via lettuce roots in agar; conditions: 144 h, application rate 12.5 ppm, 6 days after infestation, read-out: control in at least one of the three categories (mortality, anti-feedancy or growth inhibition)
From the text: Example B2: Activity Against Spodoptera littoralis (Egyptian Cotton Leaf Worm)
Test compounds were applied by pipette from 10′000 ppm DMSO stock solutions into 24-well plates and mixed with agar. Lettuce seeds were placed on the agar and the multi well plate was closed by another plate which contains also agar. After 7 days the roots have absorbed the compound and the lettuce has grown into the lid plate. The lettuce leafs were now cut off into the lid plate. Spodoptera eggs were pipetted through a plastic stencil on a humid gel blotting paper and the plate closed with it.
The samples were assessed for mortality, anti-feedant effect and growth inhibition in comparison to untreated samples 6 days after infestation.

[2] = system: Euschistus heros (Neotropical Brown Stink Bug); experiment: Example B7: Activity against Euschistus heros, sprayed soybean leaf; conditions: 120 h, application rate 200 ppm, N-2 nymphs, 5 days after infestation
Procedure: Example B7: Activity Against Euschistus heros (Neotropical Brown Stink Bug)
Soybean leaf on agar in 24-well microtiter plates were sprayed with aqueous test solutions prepared from 10′000 ppm DMSO stock solutions. After drying the leaf were infested with N-2 nymphs. The samples were assessed for mortality 5 days after infestation.

[3] = system: Spodoptera littoralis (Egyptian Cotton Leaf Worm); experiment: Example B1: Activity against Spodoptera littoralis, sprayed cotton leaf discs; conditions: foliar, 72 h, application rate 200 ppm, L1 larvae, 3 days after infestation, read-out: control in at least one of the three categories (mortality, anti-feedancy or growth inhibition)
Procedure: Example B1: Activity Against Spodoptera littoralis (Egyptian Cotton Leaf Worm)
Cotton leaf discs were placed on agar in 24-well microtiter plates and sprayed with aqueous test solutions prepared from 10′000 ppm DMSO stock solutions. After drying the leaf discs were infested with five L1 larvae. The samples were assessed for mortality, anti-feedant effect, and growth inhibition in comparison to untreated samples 3 days after infestation. Control of Spodoptera littoralis by a test sample is when at least one of mortality, anti-feedant effect, and growth inhibition is higher than the untreated sample.

[4] = system: Diabrotica Balteata (Corn Root Worm); experiment: Example B4: Activity against Diabrotica balteata, sprayed maize sprouts; conditions: 96 h, application rate 200 ppm, L2 larvae, 4 days after infestation, read-out: effect in at least one of the two categories (mortality or growth inhibition)
Procedure: Example B4: Activity Against Diabrotica Balteata (Corn Root Worm)
Maize sprouts, placed on an agar layer in 24-well microtiter plates were treated with aqueous test solutions prepared from 10′000 ppm DMSO stock solutions by spraying. After drying, the plates were infested with L2 larvae (6 to 10 per well). The samples were assessed for mortality and growth inhibition in comparison to untreated samples 4 days after infestation.

[5] = system: Plutella xylostella (Diamond Back Moth); experiment: Example B3: Activity against Plutella xylostella, artificial diet; conditions: 120 h, application rate 200 ppm, L2 larvae, 5 days after infestation, read-out: effect in at least one of the two categories (mortality or growth inhibition)
Procedure: Example B3: Activity Against Plutella xylostella (Diamond Back Moth)
24-well microtiter plates with artificial diet were treated with aqueous test solutions prepared from 10′000 ppm DMSO stock solutions by pipetting. After drying, the plates were infested with L2 larvae (10 to 15 per well). The samples were assessed for mortality and growth inhibition in comparison to untreated samples 5 days after infestation.

[6] = system: Myzus persicae (Green Peach Aphid); experiment: Example B8: Activity against Myzus persicae, sprayed sunflower leaf discs; conditions: foliar, 144 h, application rate 200 ppm, aphid population of mixed ages, 6 days after infestation
Procedure: Example B8: Activity Against Myzus persicae (Green Peach Aphid)
Sunflower leaf discs were placed on agar in a 24-well microtiter plate and sprayed with aqueous test solutions prepared from 10′000 ppm DMSO stock solutions. After drying, the leaf discs were infested with an aphid population of mixed ages. The samples were assessed for mortality 6 days after infestation.

[7] = system: Bemisia tabaci (Cotton White Fly); experiment: Example B6: Activity against Bemisia tabaci, sprayed cotton leaf discs; conditions: foliar, 144 h, application rate 200 ppm, adult white flies, 6 days after incubation
Procedure: Example B6: Activity Against Bemisia tabaci (Cotton White Fly)
Cotton leaf discs were placed on agar in 24-well microtiter plates and sprayed with aqueous test solutions prepared from 10′000 ppm DMSO stock solutions. After drying the leaf discs were infested with adult white flies. The samples were checked for mortality 6 days after incubation.

CCSc1cc(-n2ccc(C(F)(F)F)n2)cnc1C(=O)Nc1nnc(C(F)(F)C(F)(F)F)s1 [Compound P6]
≥ 80%: percent control (mortality, anti-feedant effect or growth inhibition) at 12.5 ppm [1]

CCS(=O)(=O)c1cc(-c2ncc(C(F)(F)F)cc2F)cnc1C(=O)N(C)c1nnc(C(F)(F)F)s1 [Compound P48]
≥ 80%: mortality at 200 ppm [2] | percent control (mortality, anti-feedant effect or growth inhibition) at 12.5 ppm [1] | percent control (mortality, anti-feedant effect or growth inhibition) at 200 ppm [3] | percent effect (mortality or growth inhibition) at 200 ppm [4] | percent effect (mortality or growth inhibition) at 200 ppm [5]

CCS(=O)(=O)c1cc(-c2ccc(F)cc2F)cnc1C(=O)N(C)c1nnc(C(F)(F)F)s1 [Compound P25]
≥ 80%: mortality at 200 ppm [2] | mortality at 200 ppm [6] | percent control (mortality, anti-feedant effect or growth inhibition) at 12.5 ppm [1] | percent control (mortality, anti-feedant effect or growth inhibition) at 200 ppm [3] | percent effect (mortality or growth inhibition) at 200 ppm [4] | percent effect (mortality or growth inhibition) at 200 ppm [5] | mortality at 200 ppm [7]

CCS(=O)(=O)c1cc(-c2ccnc(C(F)(F)F)n2)cnc1C(=O)N(C)c1nnc(C(F)(F)F)s1 [Compound P60]
≥ 80%: mortality at 200 ppm [2] | mortality at 200 ppm [6] | percent control (mortality, anti-feedant effect or growth inhibition) at 200 ppm [3] | percent effect (mortality or growth inhibition) at 200 ppm [4] | percent effect (mortality or growth inhibition) at 200 ppm [5]

CCS(=O)(=O)c1cc(-c2cc(Cl)ccn2)cnc1C(=O)N(C)c1nnc(C(F)(F)F)s1 [Compound P42]
≥ 80%: mortality at 200 ppm [2] | mortality at 200 ppm [6] | percent control (mortality, anti-feedant effect or growth inhibition) at 12.5 ppm [1] | percent control (mortality, anti-feedant effect or growth inhibition) at 200 ppm [3] | percent effect (mortality or growth inhibition) at 200 ppm [4] | percent effect (mortality or growth inhibition) at 200 ppm [5]

CCS(=O)(=O)c1cc(-c2ncccn2)cnc1C(=O)N(C)c1nnc(C(F)(F)F)s1 [Compound P43]
≥ 80%: mortality at 200 ppm [2] | mortality at 200 ppm [6] | percent control (mortality, anti-feedant effect or growth inhibition) at 12.5 ppm [1] | percent control (mortality, anti-feedant effect or growth inhibition) at 200 ppm [3] | percent effect (mortality or growth inhibition) at 200 ppm [4] | percent effect (mortality or growth inhibition) at 200 ppm [5]

CCS(=O)(=O)c1cc(-c2ccccn2)cnc1C(=O)N(C)c1nnc(C(F)(F)F)s1 [Compound P54]
≥ 80%: mortality at 200 ppm [2] | mortality at 200 ppm [6] | percent control (mortality, anti-feedant effect or growth inhibition) at 12.5 ppm [1] | percent control (mortality, anti-feedant effect or growth inhibition) at 200 ppm [3] | percent effect (mortality or growth inhibition) at 200 ppm [4] | percent effect (mortality or growth inhibition) at 200 ppm [5]

CCS(=O)(=O)c1cc(-c2ccc(C(F)(F)F)cc2)cnc1C(=O)N(C)c1nnc(C(F)(F)F)s1 [Compound P4]
≥ 80%: mortality at 200 ppm [2] | percent control (mortality, anti-feedant effect or growth inhibition) at 200 ppm [3] | percent effect (mortality or growth inhibition) at 200 ppm [4] | percent effect (mortality or growth inhibition) at 200 ppm [5] | mortality at 200 ppm [7]

CCS(=O)(=O)c1cc(-c2cccc(F)c2)cnc1C(=O)N(C)c1nnc(C(F)(F)F)s1 [Compound P26]
≥ 80%: mortality at 200 ppm [2] | mortality at 200 ppm [6] | percent control (mortality, anti-feedant effect or growth inhibition) at 12.5 ppm [1] | percent control (mortality, anti-feedant effect or growth inhibition) at 200 ppm [3] | percent effect (mortality or growth inhibition) at 200 ppm [4] | percent effect (mortality or growth inhibition) at 200 ppm [5]

CCS(=O)(=O)c1cc(-c2nccc(C(F)(F)F)n2)cnc1C(=O)N(C)c1nnc(C(F)(F)F)s1 [Compound P41]
≥ 80%: mortality at 200 ppm [2] | mortality at 200 ppm [6] | percent control (mortality, anti-feedant effect or growth inhibition) at 12.5 ppm [1] | percent control (mortality, anti-feedant effect or growth inhibition) at 200 ppm [3] | percent effect (mortality or growth inhibition) at 200 ppm [4] | percent effect (mortality or growth inhibition) at 200 ppm [5] | mortality at 200 ppm [7]

CCS(=O)(=O)c1cc(-c2cccc3c2OC(F)(F)O3)cnc1C(=O)N(C)c1nnc(C(F)(F)F)s1 [Compound P29]
≥ 80%: mortality at 200 ppm [2] | mortality at 200 ppm [6] | percent control (mortality, anti-feedant effect or growth inhibition) at 12.5 ppm [1] | percent control (mortality, anti-feedant effect or growth inhibition) at 200 ppm [3] | percent effect (mortality or growth inhibition) at 200 ppm [4] | percent effect (mortality or growth inhibition) at 200 ppm [5]

CCS(=O)(=O)c1cc(-c2cccc(C(F)(F)F)c2)cnc1C(=O)N(C)c1nnc(C(F)(F)F)s1 [Compound P37]
≥ 80%: mortality at 200 ppm [2] | percent control (mortality, anti-feedant effect or growth inhibition) at 200 ppm [3] | percent effect (mortality or growth inhibition) at 200 ppm [4] | percent effect (mortality or growth inhibition) at 200 ppm [5] | mortality at 200 ppm [7]

CCS(=O)(=O)c1cc(-c2cncs2)cnc1C(=O)N(C)c1nnc(C(F)(F)F)s1 [Compound P40]
≥ 80%: mortality at 200 ppm [2] | mortality at 200 ppm [6] | percent control (mortality, anti-feedant effect or growth inhibition) at 200 ppm [3] | percent effect (mortality or growth inhibition) at 200 ppm [4] | percent effect (mortality or growth inhibition) at 200 ppm [5]

CCS(=O)(=O)c1cc(-c2cc(F)cc(F)c2)cnc1C(=O)N(C)c1nnc(C(F)(F)F)s1 [Compound P35]
≥ 80%: mortality at 200 ppm [2] | mortality at 200 ppm [6] | percent control (mortality, anti-feedant effect or growth inhibition) at 12.5 ppm [1] | percent control (mortality, anti-feedant effect or growth inhibition) at 200 ppm [3] | percent effect (mortality or growth inhibition) at 200 ppm [4] | percent effect (mortality or growth inhibition) at 200 ppm [5] | mortality at 200 ppm [7]

CCS(=O)(=O)c1cc(-c2ncc(Cl)cn2)cnc1C(=O)N(C)c1nnc(C(F)(F)F)s1 [Compound P62]
≥ 80%: mortality at 200 ppm [2] | mortality at 200 ppm [6] | percent control (mortality, anti-feedant effect or growth inhibition) at 200 ppm [3] | percent effect (mortality or growth inhibition) at 200 ppm [4] | percent effect (mortality or growth inhibition) at 200 ppm [5]

CCS(=O)(=O)c1cc(-c2ccnc(F)c2)cnc1C(=O)N(C)c1nnc(C(F)(F)F)s1 [Compound P56]
≥ 80%: mortality at 200 ppm [2] | mortality at 200 ppm [6] | percent control (mortality, anti-feedant effect or growth inhibition) at 12.5 ppm [1] | percent control (mortality, anti-feedant effect or growth inhibition) at 200 ppm [3] | percent effect (mortality or growth inhibition) at 200 ppm [4] | percent effect (mortality or growth inhibition) at 200 ppm [5] | mortality at 200 ppm [7]

CCS(=O)(=O)c1cc(-c2cccc(SC)c2)cnc1C(=O)N(C)c1nnc(C(F)(F)F)s1 [Compound P30]
≥ 80%: mortality at 200 ppm [2] | mortality at 200 ppm [6] | percent control (mortality, anti-feedant effect or growth inhibition) at 200 ppm [3] | percent effect (mortality or growth inhibition) at 200 ppm [4] | percent effect (mortality or growth inhibition) at 200 ppm [5] | mortality at 200 ppm [7]

CCS(=O)(=O)c1cc(-c2ccc(OC(F)(F)F)cc2)cnc1C(=O)N(C)c1nnc(C(F)(F)F)s1 [Compound P22]
≥ 80%: mortality at 200 ppm [2] | mortality at 200 ppm [6] | percent control (mortality, anti-feedant effect or growth inhibition) at 200 ppm [3] | percent effect (mortality or growth inhibition) at 200 ppm [4] | percent effect (mortality or growth inhibition) at 200 ppm [5]

CCS(=O)(=O)c1cc(-c2ccc(C#N)cn2)cnc1C(=O)N(C)c1nnc(C(F)(F)F)s1 [Compound P64, 5-(5-cyano-2-pyridyl)-3-ethylsulfonyl-N-methyl-N-[5-(trifluoromethyl)-1,3,4-thiadiazol-2-yl]pyridine-2-carboxamide]
≥ 80%: mortality at 200 ppm [2] | mortality at 200 ppm [6] | percent control (mortality, anti-feedant effect or growth inhibition) at 200 ppm [3] | percent effect (mortality or growth inhibition) at 200 ppm [4] | percent effect (mortality or growth inhibition) at 200 ppm [5]

CCS(=O)(=O)c1cc(-c2cccc(OC(F)(F)F)c2)cnc1C(=O)N(C)c1nnc(C(F)(F)F)s1 [Compound P31]
≥ 80%: mortality at 200 ppm [2] | percent control (mortality, anti-feedant effect or growth inhibition) at 12.5 ppm [1] | percent control (mortality, anti-feedant effect or growth inhibition) at 200 ppm [3] | percent effect (mortality or growth inhibition) at 200 ppm [4] | percent effect (mortality or growth inhibition) at 200 ppm [5]
